From paper PMC3823594, “Conformational Changes Underlying Pore Dilation in the Cytoplasmic Domain of Mammalian Inward Rectifier K^+ Channels” (PLoS ONE, 2013)
Residue numbers refer to the chain shown, from its start.

Columns and labels:
Test in all cases: Two-electrode voltage clamp, ACh-dependent (m2R-dependent) K+ current activation
Kir3.2 E236Q = biological target: T1, Kir3.2 E236Q (Mus musculus, UniProt P48542, E236Q); type: cell-based; conditions: Kir3.2 E236Q with porcine m2R in Xenopus oocytes; −120 mV; Hill equation fit
T1 sequence (P48542 19-425 E236Q): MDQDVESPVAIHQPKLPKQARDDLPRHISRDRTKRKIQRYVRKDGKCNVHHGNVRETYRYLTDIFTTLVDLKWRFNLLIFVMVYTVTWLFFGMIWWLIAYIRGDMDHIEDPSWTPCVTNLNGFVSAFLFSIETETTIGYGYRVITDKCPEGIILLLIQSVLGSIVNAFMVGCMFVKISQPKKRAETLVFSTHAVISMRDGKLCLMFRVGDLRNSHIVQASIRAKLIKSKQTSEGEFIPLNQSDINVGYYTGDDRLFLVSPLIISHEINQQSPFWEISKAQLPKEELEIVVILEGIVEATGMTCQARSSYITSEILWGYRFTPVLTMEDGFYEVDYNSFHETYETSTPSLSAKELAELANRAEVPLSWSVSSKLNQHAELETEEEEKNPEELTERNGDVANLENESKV
T1 sequence (P06199 1-466 partner): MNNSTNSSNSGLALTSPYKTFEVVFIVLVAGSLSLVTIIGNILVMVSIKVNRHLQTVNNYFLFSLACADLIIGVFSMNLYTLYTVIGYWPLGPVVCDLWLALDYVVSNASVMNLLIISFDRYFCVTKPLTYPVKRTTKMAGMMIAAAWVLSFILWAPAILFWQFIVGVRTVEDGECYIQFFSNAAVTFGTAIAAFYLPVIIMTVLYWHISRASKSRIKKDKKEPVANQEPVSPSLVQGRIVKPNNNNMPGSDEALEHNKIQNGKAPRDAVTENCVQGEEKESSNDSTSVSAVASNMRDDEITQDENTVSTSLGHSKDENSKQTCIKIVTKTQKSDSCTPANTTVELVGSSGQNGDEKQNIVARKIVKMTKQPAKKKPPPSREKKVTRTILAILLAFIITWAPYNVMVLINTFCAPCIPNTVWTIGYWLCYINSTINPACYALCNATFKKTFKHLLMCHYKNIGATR

Kir3.2 E236S = biological target: T2, Kir3.2 E236S (Mus musculus, UniProt P48542, E236S); type: cell-based; conditions: Kir3.2 E236S with porcine m2R in Xenopus oocytes; −120 mV; Hill equation fit
T2 sequence (P48542 19-425 E236S): T1 sequence (P48542 19-425 E236Q) with Q218S
T2 sequence (P06199 1-466 partner): T1 sequence (P06199 1-466 partner)

Kir3.2 M313D = type: cell-based, mouse; conditions: Kir3.2 M313D with porcine m2R in Xenopus oocytes; −120 mV; Hill equation fit, min not zero
Text: (§1) The mouse Kir3.2d isoform was subjected to functional analyses. The amino acid numbers correspond to the longest mouse Kir3.2 isoform. Point mutations were introduced using the QuikChange site-directed mutagenesis kit (Stratagene, La Jolla, CA), and the presence of the mutations was confirmed by direct DNA sequencing. The care of Xenopus laevis was in accordance with the guideline of the Institute of Experimental Animal Sciences, Osaka University. The protocol was approved by the Animal Experiment Committee of Osaka University. The frogs were deeply anesthetized by immersing in 0.2% tricaine methanesulfonate for 20 min at 18°C. A portion of an ovary lobe was surgically removed and incubated with collagenase to remove follicular cells. The oocytes were injected with the cRNAs of Kir3.2 and porcine m2-muscarinic receptor (m2R), and maintained in modified Barth’s solution at 18°C with daily solution changes. Electrophysiological studies were undertaken 48–72 h later at room temperature (20–25°C). Two-electrode voltage-clamp recordings from oocytes were performed using a GeneClamp 500B amplifier (Axon Instruments, Sunnyvale, CA). […] The bath solution contained 40 mM KCl, 50 mM NaCl, 3 mM MgCl2, 0.15 mM niflumic acid, and 5 mM HEPES-KOH (pH 7.4). The currents were recorded in the absence or presence of various concentrations of acetylcholine (ACh). Ba^2+ (3 mM) was added at the end of the recording to estimate the endogenous leak current. The data are expressed as mean values ± standard error of the mean. For the quantitative estimation of ACh-dependent current responses of the wild-type (WT) and mutant channels, the current amplitudes at the end of test pulses at each ACh concentration ([ACh]) were fitted using the following equation:
(§2) I=min+[(max−min)/(1+(EC50/[ACh])^nH)]
(§3) where I is the current amplitude measured at the [ACh], n H is the Hill coefficient, and EC50 is the concentration that induces 50% of the maximal response. […] The values of n H and EC50 were calculated using a non-linear least-squares best fit (SigmaPlot 9; Systat Software). Statistical analyses were performed by one-way ANOVA with post-hoc tests.

Kir3.2 M313Q = type: cell-based, mouse; conditions: Kir3.2 M313Q with porcine m2R in Xenopus oocytes; −120 mV; Hill equation fit
Text: as §1, §2, §3

Which results are given for `CC(=O)OCC[N+](C)(C)C` [ACh, acetylcholine]?
Hill coefficient (Kir3.2 E236Q): 0.75 ± 0.02; Hill coefficient (Kir3.2 E236S): 0.86 ± 0.07; EC50 (Kir3.2 M313D): 130 ± 10 nM; Hill coefficient (Kir3.2 M313D): 0.73 ± 0.06; EC50 (Kir3.2 M313Q): 50 ± 5 nM; Hill coefficient (Kir3.2 M313Q): 0.81 ± 0.04
